According to patent EP4198033A1, “HETEROCYCLIC COMPOUNDS FOR THE CONTROL OF INVERTEBRATE PESTS” (priority 2021, dated 2023):

Legend:
Type in all cases: in vivo
[1] = test system: Tobacco budworm (Heliothis virescens); assay: Tobacco budworm test, insect diet with eggs in 96-well microtiter plates; conditions: 120 h, egg and larval mortality, 5 days, read-out: mortality in comparison with untreated controls
Experimental: For evaluating control of tobacco budworm (Heliothis virescens) the test unit consisted of 96-well-microtiter plates containing an insect diet and 15-25 H. virescens eggs.
The compounds were formulated using a solution containing 75% v/v water and 25% v/v DMSO. Different concentrations of formulated compounds were sprayed onto the insect diet at 10 µl using a custom-built micro atomizer, at two replications.
After application, microtiter plates were incubated at about 28±1°C and about 80±5 % relative humidity for 5 days. Egg and larval mortality was then visually assessed.

[2] = test system: Boll weevil (Anthonomus grandis); assay: Boll weevil test, insect diet with eggs in 96-well microtiter plates; conditions: 120 h, egg and larval mortality, 5 days, read-out: mortality in comparison with untreated controls
Experimental: For evaluating control of boll weevil (Anthonomus grandis) the test unit consisted of 96-well-microtiter plates containing an insect diet and 5-10 A. grandis eggs.
The compounds were formulated using a solution containing 75% v/v water and 25% v/v DMSO. Different concentrations of formulated compounds were sprayed onto the insect diet at 5 µl, using a custom-built micro atomizer, at two replications.
After application, microtiter plates were incubated at about 25±1°C and about 75±5 % relative humidity for 5 days. Egg and larval mortality was then visually assessed.

[3] = test system: Southern armyworm (Spodoptera eridania), 2nd instar larvae; assay: Southern armyworm foliar spray test on lima bean plants; conditions: 96 h, 4 days after treatment, read-out: mortality in comparison with untreated controls
Experimental: The active compounds were formulated by a Tecan liquid handler in 100% cyclohexanone as a 10,000-ppm solution supplied in tubes. The 10,000-ppm solution was serially diluted in 100% cyclohexanone to make interim solutions. These served as stock solutions for which final dilutions were made by the Tecan in 50% acetone:50% water (v/v) into 10 or 20ml glass vials. A nonionic surfactant (Kinetic®) was included in the solution at a volume of 0.01% (v/v). The vials were then inserted into an automated electrostatic sprayer equipped with an atomizing nozzle for application to plants/insects. Lima bean plants (variety Sieva) were grown 2 plants to a pot and selected for treatment at the 1st true leaf stage. Test solutions were sprayed onto the foliage by an automated electrostatic plant sprayer equipped with an atomizing spray nozzle. The plants were dried in the sprayer fume hood and then removed from the sprayer. Each pot was placed into perforated plastic bags with a zip closure. Ten to 11 armyworm larvae were placed into the bag and the bags zipped closed. Test plants were maintained in a growth room at about 25°C and about 20-40% relative humidity for 4 days, avoiding direct exposure to fluorescent light (14:10 light:dark photoperiod) to prevent trapping of heat inside the bags. Mortality and reduced feeding were assessed 4 days after treatment, compared to untreated control plants.

[4] = test system: Diamond back moth (Plutella xylostella); assay: Diamond back moth leaf-dip test on cabbage leaves; conditions: 72 h, read-out: mortality in comparison with untreated controls
Experimental: The active compound was dissolved at the desired concentration in a mixture of 1:1 (vol:vol) distilled water: acetone. Surfactant (Kinetic HV) was added at a rate of 0.01% (vol/vol). The test solution was prepared on the day of use.
Leaves of cabbage were dipped in test solution and air-dried. Treated leaves were placed in petri dishes lined with moist filter paper and inoculated with ten 3rd instar larvae. Mortality was recorded 72 hours after treatment. Feeding damages were also recorded using a scale of 0-100%.

[5] = test system: Yellow fever mosquito (Aedes aegypti); assay: whole plant or invertebrate; conditions: 48 h, larval mortality, 2 days, read-out: mortality in comparison with untreated controls
Experimental: For evaluating control of yellow fever mosquito (Aedes aegypti) the test unit consisted of 96-well-microtiter plates containing 200µl of tap water per well and 5-15 freshly hatched A. aegypti larvae.
The active compounds were formulated using a solution containing 75% (v/v) water and 25% (v/v) DMSO. Different concentrations of formulated compounds or mixtures were sprayed onto the insect diet at 2.5µl, using a custom-built micro atomizer, at two replications.
After application, microtiter plates were incubated at 28±1 °C, 80±5 % RH for 2 days. Larval mortality was then visually assessed.

[6] = test system: Green Peach Aphid (Myzus persicae); assay: Green peach aphid systemic test, artificial diet in 96-well microtiter plates; conditions: 72 h, adult aphids, 3 days, read-out: mortality in comparison with untreated controls
Description: For evaluating control of green peach aphid (Myzus persicae) through systemic means the test unit consisted of 96-well-microtiter plates containing liquid artificial diet under an artificial mem brane.
The compounds were formulated using a solution containing 75% v/v water and 25% v/v DMSO. Different concentrations of formulated compounds were pipetted into the aphid diet, using a custom built pipetter, at two replications.
After application, 5-8 adult aphids were placed on the artificial membrane inside the microtiter plate wells. The aphids were then allowed to suck on the treated aphid diet and incubated at about 23±1°C and about 50±5 % relative humidity for 3 days. Aphid mortality and fecundity was then visually assessed.

CC(NC(=O)c1cc(Br)cc(C(F)(F)F)c1)c1ocnc1-c1ncc(OC(F)F)cn1 (centres unmarked) [I-1, 3-bromo-N-[1-[4-[5-(difluoromethoxy)pyrimidin-2-yl]oxazol-5-yl]ethyl]-5-(trifluoromethyl)benzamide]
≥ 75%: mortality at 2500 ppm [1] | mortality at 2500 ppm [2] | mortality at 300 ppm [3] | mortality at 300 ppm [4] | mortality at 2500 ppm [5]

CC(NC(=O)c1cc(OC(F)F)cc(C(F)(F)F)c1)c1ncoc1-c1ncccn1 (centres unmarked) [I-3, 3-(difluoromethoxy)-N-[1-(5-pyrimidin-2-yloxazol-4-yl)ethyl]-5-(trifluoromethyl)benzamide]
≥ 75%: mortality at 2500 ppm [6] | mortality at 2500 ppm [2] | mortality at 300 ppm [3] | mortality at 2500 ppm [5]

CCN(C(=O)c1cc(OC(F)F)cc(C(F)(F)F)c1)C(C)c1ncoc1-c1ncccn1 (centres unmarked) [I-5, 3-(difluoromethoxy)-N-ethyl-N-[1-(5-pyrimidin-2-yloxazol-4-yl)ethyl]-5-(trifluoromethyl)benzamide]
≥ 75%: mortality at 2500 ppm [6] | mortality at 2500 ppm [2]
